This is an account of results in ChEMBL document CHEMBL1134432 (Bioorg Med Chem Lett, 2001).

Experiment [1] is filed under the species Rattus norvegicus. Description: Effective concentration required to determined hallucinogen-like activity in LSD-trained rats. Type of experiment: functional.
The test system of experiment [2] is Rattus norvegicus. In words: Percentage of animals tested that selected the training compound appropriate level at 0.125 umol/kg in DOI-trained rats. It counts as functional.
In experiment [3] the test system is Rattus norvegicus. In words: Percentage of animals tested that selected the training compound appropriate level at 0.25 umol/kg in LY-293284-trained rats. It counts as functional.
Experiment [4] has as its system Rattus norvegicus. Description: Percentage of animals failed to emit 50 responses within 5 min at 0.25 umol/kg in LSD-trained rats. Type of experiment: functional.
The subject of experiment [5] is Rattus norvegicus. In words: Percentage of animals failed to emit 50 responses within 5 min at 0.125 umol/kg in LY-293284-trained rats. Type of experiment: functional.
In experiment [6] the test system is Rattus norvegicus. Description: Percentage of animals tested that selected the training compound appropriate level at 0.5 umol/kg in DOI-trained rats. Type of experiment: functional.
For experiment [7], the system named is Rattus norvegicus. In words: Percentage of animals tested that selected the training compound appropriate level at 1 umol/kg in LSD-trained rats. Type of experiment: functional.
The target of experiment [8] is 5-hydroxytryptamine receptor 2A (Rattus norvegicus, UniProt P14842). In words: Binding affinity towards rat 5-hydroxytryptamine 2A receptor was determined using [125I]- DOI as radioligand.
Experiment [9] has as its system Rattus norvegicus. Description: Percentage of animals failed to emit 50 responses within 5 min at 0.25 umol/kg in LY-293284-trained rats. It counts as functional.
Experiment [10] concerns Rattus norvegicus. In words: Percentage of animals failed to emit 50 responses within 5 min at 0.125 umol/kg in LSD-trained rats. It counts as functional.
The subject of experiment [11] is Rattus norvegicus. Description: Percentage of animals failed to emit 50 responses within 5 min at 0.5 umol/kg in DOI-trained rats. It counts as functional.
Experiment [12] has as its system Rattus norvegicus. In words: Percentage of animals tested that selected the training compound appropriate level at 1 umol/kg in LY-293284-trained rats. It counts as functional.
In experiment [13] the test system is Rattus norvegicus. In words: Percentage of animals failed to emit 50 responses within 5 min at 1 umol/kg in LSD-trained rats. Type of experiment: functional.
Experiment [14] concerns Rattus norvegicus. Description: Percentage of animals failed to emit 50 responses within 5 min at 0.5 umol/kg in LY-293284-trained rats. It counts as functional.
In experiment [15] the test system is Rattus norvegicus. Description: Percentage of animals failed to emit 50 responses within 5 min at 0.5 umol/kg in LSD-trained rats. It counts as functional.
Experiment [16] concerns Rattus norvegicus. Description: Percentage of animals failed to emit 50 responses within 5 min at 0.25 umol/kg in DOI-trained rats. Type of experiment: functional.
In experiment [17] the test system is Rattus norvegicus. In words: Percentage of animals failed to emit 50 responses within 5 min at 0.063 umol/kg in LY-293284-trained rats. It counts as functional.
Experiment [18] deals with Rattus norvegicus. Description: Percentage of animals tested that selected the training compound appropriate level at 0.5 umol/kg in LY-293284-trained rats. It counts as functional.
For experiment [19], the system named is Rattus norvegicus. Description: Percentage of animals tested that selected the training compound appropriate level at 0.25 umol/kg in DOI-trained rats. Type of experiment: functional.
Experiment [20] deals with T1, 5-hydroxytryptamine receptor 1A (Homo sapiens, UniProt P08908).
T1 sequence (P08908 whole entry): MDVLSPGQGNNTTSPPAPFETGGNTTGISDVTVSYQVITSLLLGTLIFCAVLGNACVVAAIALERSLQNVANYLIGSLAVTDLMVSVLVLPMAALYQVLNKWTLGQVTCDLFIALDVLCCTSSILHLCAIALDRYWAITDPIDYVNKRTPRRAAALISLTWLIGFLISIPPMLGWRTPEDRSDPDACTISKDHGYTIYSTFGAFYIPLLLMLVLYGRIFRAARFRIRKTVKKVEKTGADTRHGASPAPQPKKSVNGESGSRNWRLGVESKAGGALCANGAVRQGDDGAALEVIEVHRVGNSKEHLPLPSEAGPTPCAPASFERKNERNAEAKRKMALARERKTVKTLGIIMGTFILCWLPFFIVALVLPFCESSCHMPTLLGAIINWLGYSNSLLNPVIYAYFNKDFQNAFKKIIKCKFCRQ
Description: Binding affinity towards human 5-hydroxytryptamine 1A receptor was determined using [3H]8-OH-DPAT-as radioligand.

Experiment [21] concerns Rattus norvegicus. In words: Percentage of animals tested that selected the training compound appropriate level at 0.25 umol/kg in LSD-trained rats. Type of experiment: functional.
Experiment [22] concerns Rattus norvegicus. Description: Percentage of animals tested that selected the training compound appropriate level at 0.125 umol/kg in LY-293284-trained rats. Type of experiment: functional.
For experiment [23], the system named is Rattus norvegicus. In words: Percentage of animals tested that selected the training compound appropriate level at 0.125 umol/kg in LSD-trained rats. It counts as functional.
In experiment [24] the test system is Rattus norvegicus. Description: Percentage of animals tested that selected the training compound appropriate level at 0.5 umol/kg in LSD-trained rats. It counts as functional.
Experiment [25] has as its target T2, 5-hydroxytryptamine receptor 2C (Rattus norvegicus, UniProt P08909).
T2 sequence (P08909 whole entry): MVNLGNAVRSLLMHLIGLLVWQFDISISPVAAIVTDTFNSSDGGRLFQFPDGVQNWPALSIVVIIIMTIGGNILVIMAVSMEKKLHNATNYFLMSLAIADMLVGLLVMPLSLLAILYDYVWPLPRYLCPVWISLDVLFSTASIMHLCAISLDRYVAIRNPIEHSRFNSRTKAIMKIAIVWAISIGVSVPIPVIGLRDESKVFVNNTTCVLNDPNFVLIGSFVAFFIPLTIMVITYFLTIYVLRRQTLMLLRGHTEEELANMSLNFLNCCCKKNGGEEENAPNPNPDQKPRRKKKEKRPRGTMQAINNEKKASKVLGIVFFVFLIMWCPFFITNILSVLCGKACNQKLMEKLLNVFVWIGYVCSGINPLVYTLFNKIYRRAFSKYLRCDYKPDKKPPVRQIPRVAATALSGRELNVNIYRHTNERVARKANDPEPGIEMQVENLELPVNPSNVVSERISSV
In words: Binding affinity towards rat 5-hydroxytryptamine 2C receptor was determined using [125I]- DOI as radioligand.

In experiment [26] the test system is Rattus norvegicus. In words: Percentage of animals failed to emit 50 responses within 5 min at 1 umol/kg in LY-293284-trained rats. Type of experiment: functional.
In experiment [27] the test system is Rattus norvegicus. Description: Percentage of animals tested that selected the training compound appropriate level at 0.063 umol/kg in LY-293284-trained rats. Type of experiment: functional.
The subject of experiment [28] is Rattus norvegicus. Description: Percentage of animals failed to emit 50 responses within 5 min at 0.125 umol/kg in DOI-trained rats. Type of experiment: functional.

Chain of 5-hydroxytryptamine receptor 2A (P14842 whole entry): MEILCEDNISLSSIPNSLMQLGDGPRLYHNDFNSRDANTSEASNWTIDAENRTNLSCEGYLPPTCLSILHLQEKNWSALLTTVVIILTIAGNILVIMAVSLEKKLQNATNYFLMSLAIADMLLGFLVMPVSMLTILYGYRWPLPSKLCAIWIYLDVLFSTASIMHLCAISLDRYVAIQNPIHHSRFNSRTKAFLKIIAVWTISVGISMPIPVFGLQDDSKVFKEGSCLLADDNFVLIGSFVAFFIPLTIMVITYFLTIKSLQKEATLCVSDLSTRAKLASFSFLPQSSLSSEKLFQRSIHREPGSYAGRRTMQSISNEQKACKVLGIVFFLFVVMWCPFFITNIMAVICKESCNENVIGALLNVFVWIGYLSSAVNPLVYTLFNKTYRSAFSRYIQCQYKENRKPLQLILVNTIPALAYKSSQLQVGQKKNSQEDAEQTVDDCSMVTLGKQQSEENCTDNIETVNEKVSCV

The ED50 is the midpoint of the dose-response relation. High values mean weaker potency, low ones greater potency. Molecule `CCN(CC)C(=O)[C@@H]1C=C2c3cccc4[nH]cc(c34)C[C@H]2N(C)C1` [LYSERGIDE] came in with an ED50 in the experiment listed under Rattus norvegicus [1] of 0.026 µmol/kg.

Regarding `CCCN(CCC)C1CCc2cccc(O)c2C1` (stereo unspecified) [8-OH-DPAT], the ED50 in the experiment filed under Rattus norvegicus [1] came to 0.099 µmol/kg.

One may read the Ki as a dissociation constant, usually derived from enzyme kinetics or from competition with a known ligand. Read a low Ki as tighter binding. As to `COc1ccc2[nH]cc(CCN3CCCC3)c2c1F`, the SDL in the experiment on Rattus norvegicus [2] was 0%; in the experiment on Rattus norvegicus [3], 100%; in the experiment with Rattus norvegicus [6], 50%; in the experiment on Rattus norvegicus [7], 67%; in the experiment with Rattus norvegicus [12] it was 100%; with Rattus norvegicus [18], 100%. The SDL in the experiment on Rattus norvegicus [19] is recorded as 29%; with Rattus norvegicus [21], 57%; with Rattus norvegicus [22], 66.6%; with Rattus norvegicus [23] it was 11%; with Rattus norvegicus [24] it was 75%; in the experiment on Rattus norvegicus [27], 25%. The D is 53% in the experiment with Rattus norvegicus [4]; 10% in the experiment with Rattus norvegicus [5]; 12.5% in the experiment on Rattus norvegicus [9]; 10% in the experiment with Rattus norvegicus [10]; 50% in the experiment with Rattus norvegicus [11]; 78% with Rattus norvegicus [13]. In addition, the D in the experiment with Rattus norvegicus [14] stood at 66.6%; in the experiment with Rattus norvegicus [15], 60%; in the experiment with Rattus norvegicus [16] it was 30%; with Rattus norvegicus [17], 0%; with Rattus norvegicus [26] it was 90%; in the experiment on Rattus norvegicus [28], 22%. Besides, the figures for the Ki in [8], in [20] and in experiment [25] were 130 nM, 0.12 nM and 140 nM, respectively.

`COc1cc(CC(C)N)c(OC)cc1I` (stereo unspecified): in the experiment filed under Rattus norvegicus [1], it took a dose of 0.29 µmol/kg to reach the 50% effect level (ED50).

On to `COc1ccc2[nH]cc(CCN(C)C)c2c1F`, for which affinity in [20] was put at a Ki of 0.23 nM.
